Where two headings read alike, the source gives them in different places.
How the values were obtained:
TNF-α production = conditions: approximately 0.1 to approximately 1.0 microgram/ml for 48 hours; cited from earlier work
mice = conditions: cited from earlier work
IL-6 = conditions: same conditions; cited from earlier work
silicosis = conditions: mice; cited from earlier work
IL-6 synthesis = test: SAC-induced IL-6 synthesis, RAW 264.7 macrophage cells; assay type: cell-based, Murine
Protocol: (§1) Murine macrophage cells RAW 264.7 (1×10^6/ml) were pretreated for 30-60 minutes with varying doses of the synthetic compound of Formula (I), the synthetic compound of formula (I) and a panel of analogs (diluted in 0.5% DMSO) prior to stimulation with various agents such as lipopolysaccharide (LPS) or a gram positive agent like heat-killed Staph aureus (SAC). Supernatants collected over a 72-hour period will be assayed for the levels of TNF-α, IL-1, IL-6, IL-10, IL-12 and other cytokines either by elisa or bioassay. Additional studies to evaluate the effects of the synthetic compound of Formulae (I), (II), (IIA) and (IIB) on cytokine signaling pathways such as, for example, Caspase-activity (Nr-1, Nr.3), transcription factors such as NF-kB, MAP-kinase activity (p38, ERK and JNK) will also be performed.

cirrhosis = conditions: mice; cited from earlier work
IL-1 production = conditions: approximately 0.1 to approximately 1.0 microgram/ml for 48 hours; cited from earlier work
IFN-γ (interferon-gamma) = conditions: same conditions; cited from earlier work
rat = conditions: cited from earlier work
THP-1 cells = test: Resazurin (alamarBlue) cell viability assay in differentiated THP-1 cells; assay type: cell-based, human; conditions: footnote marks: * mild, ** marked reduction in viability, in % (unit assumed)
Protocol: (§2) The ability to inhibit TNF-α production was analyzed in THP-1 cells, a human acute monocytic leukemia cell line that is widely used to assess monocyte functions. In order to induce maturation, THP-1 cells were plated at 1×10^6 cells/ml and pretreated with 5 nM PMA for two days. Differentiated THP-1 cells were pretreated with various concentrations of NPI-1302a-3 or its analogs for 1 hour, followed by a 4 hour incubation with 1 μg of LPS (Sigma, St. Louse, Mo.). The P38 inhibitor (10 μM, SB 203580; Sigma, St. Louis, Mo.) was used as a positive control. Supernatants were collected and stored at −80° C. until assayed for TNF-α activity. A resazurin assay was performed for each analog to evaluate the effects on cell metabolism and viability.
A preparation of the dye resazurin, commercially-available as alamarBlue™ (Biosource International Inc.; 820 Flynn Road, Camarillo, Calif.), was used for the cytotoxicity assays described herein. The assays and experiments described herein were conducted in substantially the same manner as described in the scientific literature, for example, in Magnani, E and Bettini, E., “Resazurin detection of energy metabolism changes in serum-starved PC12 cells and of neuroprotective agent effect,” Brain Res Protoc., Jul. 5, 2000(3):266-72 and in Nociari M. M., Shalev A., Benias P., and Russo C. J, “A novel one-step, highly sensitive fluorometric assay to evaluate cell-mediated cytotoxicity,” Immunol.Methods 213, 157-167 (1998), see also U.S. Pat. No. 5,501,959, entitled “Antibiotic and Cytotoxic Drug Susceptibility Assays using Resazurin and Poising Agents,” the entire specification of which is incorporated herein by reference.

[1] = test system: TNF-α synthesis of THP-1 cells; test: LPS-induced TNF-α production in PMA-differentiated THP-1 cells (FLISA); assay type: cell-based, human; conditions: THP-1, LPS
Protocol: as §2
To detect the presence of human TNFα, fluorescent linked immunosorbent assay or FLISA was developed and optimized. 100 μl of beads (6 μm, Spherotech) coated with goat anit-mouse IgG (1 mg/ml, R and D Systems) were mixed with 4 μl of biotin-anti-hTNFα mouse IgG (0.1 mg/ml, R and D Systems) and 2 μl of FMAT Blue-streptavidin (0.1 mg/ml, Applied Biosystems). 50 μl of the mixtures was combined with 50 μl of the supernatant isolated from treated THP-1 cells and added to the black wall FLISA plates (Applied Biosystems) and incubated overnight. The plates were scanned at factory set PMT setting, and the values were plotted and analyzed by Applied Biosystems software.

IL-1 synthesis = test: Inhibition of SAC-induced IL-1 synthesis, RAW 264.7 macrophage cells; assay type: cell-based, Murine; conditions: for IL-1α: Table 6, SAC-induced, SAC alone 650, unstimulated 0
Protocol: as §1

TNF-α synthesis [2] = test: Inhibition of LPS-induced TNF-α synthesis, RAW 264.7 macrophage cells; assay type: cell-based, Murine; conditions: for TNF-α: Table 7, LPS alone 88
Protocol: as §1

TNF-α synthesis [3] = test: Inhibition of SAC-induced TNF-α synthesis, RAW 264.7 macrophage cells; assay type: cell-based, Murine; conditions: SAC alone 375, unstimulated 5
Protocol: as §1

LPS/D-Gal administration = test: Mortality after LPS/D-Gal administration; assay type: in vivo; conditions: i.p., TTL3 45 minutes prior to LPS

Structure (SMILES): C=C[C@@]1(C)CC=C2[C@@H](CC[C@@H]3[C@](C)(C(=O)O)CCC[C@@]23C)C1 [Formula (I), acanthoic acid]
- inhibition of the TNF-α production (TNF-α production): approximately 90%
- toxicity (mice): minimal toxicity
- toxicity (mice; listed as 1): very little toxicity
- LD (mice; orally): > 300 mg/100 g of body weight
- production of IL-6 (IL-6): not affected
- fibrotic granulomas (histologic analysis) (silicosis): substantial reduction of fibrotic granulomas
- inhibition of IL-6 synthesis (IL-6 synthesis): neither analog TTL1 nor TTL3 significantly inhibited IL-6 synthesis
- cirrotic liver cells (histologic analysis) (cirrhosis): remarkable recovery of the cirrotic liver cells
- inhibition of the IL-1 production (IL-1 production): approximately 90%
- production of IFN-γ (IFN-γ (interferon-gamma)): not affected
- minimum lethal dose (MLD) (rat; rat, in vivo): 1000 mg/kg
- toxicity (rat; rats): minimal toxicity

Structure (SMILES): C=CC1(C)CCC=C2C1CCC1C(C)(C(=O)N(CCO)CCO)CCCC21C (stereo not shown) [LT-1-78]
- Cell Viability (THP-1 cells; 100 ng/ml): 100
- Cell Viability (THP-1 cells; 1 ug/ml): 100
- Cell Viability (THP-1 cells; 10 ug/ml): 100
- Percent TNF-α Inhibition ([1]; 100 ng/ml): 0%
- Percent TNF-α Inhibition ([1]; 1 ug/ml): 0%
- Percent TNF-α Inhibition ([1]; 10 ug/ml): 20%

Structure (SMILES): C=C[C@@]1(C)CCC=C2[C@H]1CC[C@@H]1[C@](C)(C(=O)O)CCC[C@@]21C [TTL1]
- Cell Viability (THP-1 cells; 100 ng/ml): 100
- Cell Viability (THP-1 cells; 1 ug/ml): 100
- inhibition of IL-6 synthesis (IL-6 synthesis): neither analog TTL1 nor TTL3 significantly inhibited IL-6 synthesis
- inhibition at 0.1 µg/mL ([1]; Homo sapiens, 100 ng/ml, read-out: Percent TNF-α Inhibition): 10%
- inhibition at 1 µg/mL ([1]; Homo sapiens, 1 ug/ml, read-out: Percent TNF-α Inhibition): 30%
- inhibition at 10 µg/mL ([1]; Homo sapiens, 10 ug/ml, read-out: Percent TNF-α Inhibition): 50%

Structure (SMILES): C=CC1(C)CCC=C2C1CCC1C(C)(C(=O)NCCN)CCCC21C (stereo not shown) [LT-1-74]
- Cell Viability (THP-1 cells; 100 ng/ml): 100
- Cell Viability (THP-1 cells; 1 ug/ml): 100
- Percent TNF-α Inhibition ([1]; 100 ng/ml): 25%
- Percent TNF-α Inhibition ([1]; 1 ug/ml): 30%

Structure (SMILES): C=CC1(C)CCC=C2C1CCC1C(C)(C(=O)OC)CCCC21C (stereo not shown) [TTL3]
- IL-1α (IL-1 synthesis; TTL3 0.001 μg/ml): 200 pg/mL
- IL-1α (IL-1 synthesis; TTL3 0.01 μg/ml): 220 pg/mL
- IL-1α (IL-1 synthesis; TTL3 0.1 μg/ml): 190 pg/mL
- IL-1α (IL-1 synthesis; TTL3 1 μg/ml): 180 pg/mL
- IL-1α (IL-1 synthesis; TTL3 10 μg/ml): 170 pg/mL
- times greater activity than TTL1 (inhibiting IL-1 synthesis) (IL-1 synthesis; stimulus not given): approximately 100 times
- TNF-α (TNF-α synthesis [2]; LPS (1 μg/ml) + TTL3 1.0 μg/ml): 13 ng/mL
- TNF-α (TNF-α synthesis [2]; LPS (1 μg/ml) + TTL3 1 × 10^2 μg/ml): 4 ng/mL
- TNF-α (TNF-α synthesis [2]; LPS (1 μg/ml) + TTL3 1 × 10^−4 μg/ml): 15 ng/mL
- TNF-α (TNF-α synthesis [2]; LPS (1 μg/ml) + TTL3 1 × 10^−5 μg/ml): 10 ng/mL
- TNF-α (TNF-α synthesis [2]; LPS (1 μg/ml) + TTL3 1 × 10^−6 μg/ml): 18 ng/mL
- TNF-α (TNF-α synthesis [2]; LPS (1 μg/ml) + TTL3 1 × 10^−7 μg/ml): 41 ng/mL
- times greater activity than TTL1 (inhibiting TNF-α synthesis) (TNF-α synthesis [2]; stimulus not given): approximately 100 times
- Cell Viability (THP-1 cells; 100 ng/ml): 100
- Cell Viability (THP-1 cells; 1 ug/ml): 100
- Cell Viability (THP-1 cells; 10 ug/ml): 100
- inhibition of IL-6 synthesis (IL-6 synthesis): neither analog TTL1 nor TTL3 significantly inhibited IL-6 synthesis
- TNF-α (TNF-α synthesis [3]; Table 5, TTL3 0.001 μg/ml): 80 ng/mL
- TNF-α (TNF-α synthesis [3]; Table 5, TTL3 0.01 μg/ml): 75 ng/mL
- TNF-α (TNF-α synthesis [3]; Table 5, TTL3 0.1 μg/ml): 85 ng/mL
- TNF-α (TNF-α synthesis [3]; Table 5, TTL3 1 μg/ml): 60 ng/mL
- TNF-α (TNF-α synthesis [3]; Table 5, TTL3 10 μg/ml): 80 ng/mL
- Mortality 24 hours (LPS/D-Gal administration; LPS/D-Gal alone 10/10, + DMSO 8/10): 2/10
- Mortality 48 hours (LPS/D-Gal administration; LPS/D-Gal alone 10/10, + DMSO 9/10): 2/10
- Percent TNF-α Inhibition ([1]; 100 ng/ml): 30%
- Percent TNF-α Inhibition ([1]; 1 ug/ml): 55%
- Percent TNF-α Inhibition ([1]; 10 ug/ml): 70%

Structure (SMILES): C=CC1(C)CCC=C2C1CCC1C(C)(CNCCN)CCCC21C (racemic) [CC-3-13 ra]
- Cell Viability (THP-1 cells; 100 ng/ml): 95*
- Cell Viability (THP-1 cells; 1 ug/ml): 75**
- Cell Viability (THP-1 cells; 10 ug/ml): 20**
- Percent TNF-α Inhibition ([1]; 100 ng/ml): 10%
- Percent TNF-α Inhibition ([1]; 1 ug/ml): 50%
- Percent TNF-α Inhibition ([1]; 10 ug/ml): 95%

Structure (SMILES): C=CC1(C)CCC=C2C1CCC1C(C)(C=O)CCCC21C (stereo not shown) [CC-3-09]
- Cell Viability (THP-1 cells; 100 ng/ml): 100
- Cell Viability (THP-1 cells; 1 ug/ml): 100
- Cell Viability (THP-1 cells; 10 ug/ml): 100
- Percent TNF-α Inhibition ([1]; 100 ng/ml): 0%
- Percent TNF-α Inhibition ([1]; 1 ug/ml): 0%
- Percent TNF-α Inhibition ([1]; 10 ug/ml): 10%

From patent US7288671B2, “Interleukin-1 and tumor necrosis factor-α modulators, synthesis of said modulators and their enantiomers and methods of using said modulators” (Nereus Pharmaceuticals, Inc., priority 1999, dated 2007)
